From patent US20250026748A1, “N-(5-SUBSTITUTED-[(1,3,4-THIADIAZOLYL) OR (THIAZOLYL)])(SUBSTITUTED)CARBOXAMIDE COMPOUNDS AND USE THEREOF FOR INHIBITING HUMAN POLYMERASE THETA” (Repare Therapeutics Inc., priority 2021, published 2025) come the findings set out here.

The experiment deals with PolQ ATPase enzyme (1-894) (Homo sapiens (Human), UniProt O75417). In words: Polθ ATPase enzymatic assay (0.5 nM enzyme concentration), ADP-Glo. In kind it is biochemical. To be noted: average IC50; 0.5 nM PolQ ATPase enzyme (1-894). A digest of the protocol: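 Enzyme (0.5 nM) pre-incubated 15 min at rt with 10-point inhibitor series in 50 mM Tris pH 7.5, 10% glycerol, 5 mM DTT, 10 mM MgCl2, 0.1 mg/ml BSA; reaction started with 20 nM fork DNA and 100 μM ATP, run 180 min at rt. ADP-Glo luminescence; IC50 from 4-parameter variable-slope fit.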
Sequence of PolQ ATPase enzyme (1-894) (O75417 1-894): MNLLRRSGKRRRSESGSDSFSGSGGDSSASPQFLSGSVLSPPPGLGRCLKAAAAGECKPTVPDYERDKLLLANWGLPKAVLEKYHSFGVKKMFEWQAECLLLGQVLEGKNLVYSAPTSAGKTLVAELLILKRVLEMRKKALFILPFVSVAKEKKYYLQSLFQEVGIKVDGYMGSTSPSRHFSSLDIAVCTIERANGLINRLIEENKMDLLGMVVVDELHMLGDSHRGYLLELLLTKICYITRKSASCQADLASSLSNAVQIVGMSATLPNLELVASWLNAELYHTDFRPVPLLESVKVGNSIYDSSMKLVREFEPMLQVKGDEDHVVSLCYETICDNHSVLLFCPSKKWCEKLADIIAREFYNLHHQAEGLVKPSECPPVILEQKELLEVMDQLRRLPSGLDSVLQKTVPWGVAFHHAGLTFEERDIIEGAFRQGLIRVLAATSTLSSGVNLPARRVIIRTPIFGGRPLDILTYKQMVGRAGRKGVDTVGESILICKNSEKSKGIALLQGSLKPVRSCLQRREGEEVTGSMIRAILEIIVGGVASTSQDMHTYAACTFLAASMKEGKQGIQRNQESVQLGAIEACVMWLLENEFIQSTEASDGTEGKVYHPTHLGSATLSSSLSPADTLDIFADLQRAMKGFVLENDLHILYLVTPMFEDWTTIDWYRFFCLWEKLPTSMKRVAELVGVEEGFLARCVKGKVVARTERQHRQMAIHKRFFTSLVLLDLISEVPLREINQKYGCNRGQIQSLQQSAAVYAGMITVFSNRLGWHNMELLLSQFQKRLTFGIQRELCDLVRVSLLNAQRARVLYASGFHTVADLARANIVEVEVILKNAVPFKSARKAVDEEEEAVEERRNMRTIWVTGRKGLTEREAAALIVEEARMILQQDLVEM
(In ADP-Glo the light output rises with the ADP produced.)
In the case of `[2H]C([2H])([2H])Oc1cnc(C(F)F)cc1-c1cc(-c2ccn(C)n2)ncc1C(=O)Nc1nnc(C#CC2CC2)s1` [Compound 375], the IC50 is < 0.25 nM.

Take `COc1cnc(C(F)F)cc1-c1cc(-c2ccnn2C)ncc1C(=O)Nc1nnc(C#CC2CC2)s1` [Compound 127]: the IC50 was < 0.25 nM.

As to `C#C[C@H]1C[C@@H]1c1nnc(NC(=O)c2cnc(CC#N)cc2-c2cc(C(F)F)ncc2OC)s1` [Compound 190], the IC50 came out at 5.8 nM.

On to `COc1cnc(C(F)F)cc1-c1cc(Cl)ncc1C(=O)Nc1nc(C#N)c(C#CC2CC2)s1` [Compound 259], for which the IC50 came to 1.2 nM.

Consider `COc1cnc(Cl)cc1-c1cc(C#N)ccc1C(=O)Nc1nnc(C#CC2CC2)s1` [Compound 40], for which the IC50 is < 0.25 nM.

For the compound `COc1cnc(C(F)F)cc1-c1cc(-n2nc3c(cc2=O)CCC3)ncc1C(=O)Nc1nnc(C#CC2CC2)s1` [Compound 462], the IC50 was < 0.25 nM.

Turning to `COc1cc(N2CCOCC2)c(C(F)(F)F)cc1-c1cnccc1C(=O)Nc1nnc(C#CC2CC2)s1` [Compound 325], the IC50 was < 0.25 nM.

For the compound `COc1cnc(C(F)F)cc1-c1cn(C)c(=O)cc1C(=O)Nc1nnc(C2C[C@H]2c2ccc(C#N)cc2)s1` (some centres unmarked) [Compound 322], the midpoint of inhibition, the IC50, lay at 1.9 nM.

For the compound `COc1cnc(C(F)F)cc1-c1cc(N2CCNCC2=O)ccc1C(=O)Nc1nnc(C#CC2CC2)s1` [Compound 143], the IC50 was < 0.25 nM.

`COc1cnc(C(F)F)cc1-c1cc(-c2nnc(C)o2)ncc1C(=O)Nc1nnc(C#CC2CC2)s1` [Compound 354] registered an IC50 of 0.27 nM.

Compound `COc1ccc(C(F)(F)F)nc1-c1cn(CC(=O)N(C)C)c(=O)cc1C(=O)Nc1nnc(C#CC2CC2)s1` [Compound 51] showed an IC50 of 2.1 nM.

For the compound `COc1cnc(C(F)F)cc1-c1cc(N(C)c2nnc(C)o2)ccc1C(=O)Nc1ncc(C#CC2CC2)s1` [Compound 119], the midpoint of inhibition, the IC50, lay at 23 nM.

Compound `COc1cnc(C(F)F)cc1-c1cc(C(=O)N2CCOCC2)ccc1C(=O)Nc1nnc(C#CC2CC2)s1` [Compound 254] came in with an IC50 of 1.7 nM.

Turning to `[2H]C([2H])([2H])N(C(C)=O)c1ccc(C(=O)Nc2nnc(C#CC3CC3)s2)c(-c2cc(C(F)F)ncc2OC)c1` [Compound 232], the IC50 is < 0.25 nM.

Regarding `CNC(=O)Cn1cc(-c2cc(C(F)(F)F)ccc2OC)c(C(=O)Nc2nnc(C#CC3CC3)s2)cc1=O` [Compound 93], half-maximal inhibition (IC50) required 0.32 nM.

Compound `COc1cnc(C(F)F)cc1-c1cc(N2CC3(COC3)C2)ncc1C(=O)Nc1nnc(C#CC2CC2)s1` [Compound 162] registered an IC50 of 13 nM.

In the case of `CNC(=O)Cn1cc(-c2cc(Cl)ncc2OC)c(C(=O)Nc2nnc(C#CC3CC3)s2)cc1=O` [Compound 104], the IC50 was found to be 0.31 nM.

For `COc1cnc(Cl)cc1-c1cn(CC(N)=O)c(=O)cc1C(=O)Nc1nnc(C#CC2CC23CC3)s1` (centres unmarked) [Compound 83], the IC50 was < 0.25 nM.

On to `COc1cnc(C(F)F)cc1-c1cc(-c2ccc(=O)n(C)c2)ccc1C(=O)Nc1nnc(C#CC2CC2)s1` [Compound 202], for which half-maximal inhibition (IC50) required 0.29 nM.

`COc1ccc(C(F)(F)F)cc1-c1cnccc1C(=O)Nc1nnc(C2CC2c2ccc(C#N)cc2)s1` (centres unmarked) [Compound 30] yielded an IC50 of 0.76 nM.

In the case of `COc1cnc(C(F)F)cc1-c1cc(-c2cnn(S(C)(=O)=O)c2)ncc1C(=O)Nc1nnc(C#CC2CC2)s1` [Compound 393], the half-inhibitory concentration (IC50) is < 0.25 nM.

For the compound `COc1cnc(C(F)F)cc1-c1cc(OCC2CCOCC2)ncc1C(=O)Nc1nnc(C#CC2CC2)s1` [Compound 150, N-(5-(cyclopropylethynyl)-1,3,4-thiadiazol-2-yl)-2′-(difluoromethyl)-5′-methoxy-6-((tetrahydro-2H-pyran-4-yl)methoxy)-[4,4′-bipyridine]-3-carboxamide], the IC50 is < 0.25 nM.

In the case of `COc1cnc(C(F)F)cc1-c1cc(-c2nn(C)cc2C)ncc1C(=O)Nc1nnc(C#CC2CC2)s1` [Compound 351], the IC50 is < 0.25 nM.

With `COc1ccc(C(F)(F)F)cc1-c1cn(C)c(=O)cc1C(=O)Nc1nnc(C#CC2CCOCC2)s1` [Compound 337], the IC50 was 9.2 nM.

`COc1cnc(Cl)cc1-c1cncc(F)c1C(=O)Nc1nnc(C#CC2CC2)s1` [Compound 327] returned an IC50 of 4.1 nM.

In the case of `COc1cnc(C(F)F)cc1-c1cc(N2CCOCC2=O)ccc1C(=O)Nc1nnc(C#CC2CC2)s1` [Compound 108, N-(5-(cyclopropylethynyl)-1,3,4-thiadiazol-2-yl)-2-(2-(difluoromethyl)-5-methoxypyridin-4-yl)-4-(3-oxomorpholino)benzamide], the 50% inhibitory concentration (IC50) was < 0.25 nM.

On to `COc1cnc(C(F)F)cc1-c1cc(N2CCOCC2)ncc1C(=O)Nc1nnc(C#CC2CC2)s1` [Compound 235], for which half-maximal inhibition (IC50) required 19 nM.

The compound `COc1cnc(C(F)F)cc1-c1cc(Oc2cnn(C)c2)ncc1C(=O)Nc1nnc(C#CC2CC2)s1` [Compound 271] yielded an IC50 of 0.64 nM.

As to `COc1cnc(Cl)cc1-c1cc(C#CC2(O)COC2)ccc1C(=O)Nc1nnc(C#CC2CC2)s1` [Compound 54], the IC50 was < 0.25 nM.

In turn, `COc1cnc(Cl)cc1-c1cc(C2(C(=O)N(C)C)CC2)ccc1C(=O)Nc1nnc(C#CC2CC2)s1` [Compound 234] displayed an IC50 of 34 nM.

Regarding `COc1cnc(CF)cc1-c1cnccc1C(=O)Nc1nnc(C#CC2CC2)s1` [Compound 71], half-maximal inhibition (IC50) was put at 1.8 nM.

`C#CC1CC1c1nnc(NC(=O)c2ccc(N3CCOCC3=O)cc2-c2cc(C(F)F)ncc2OC)s1` (centres unmarked) [Compound 396]: the IC50 came to 10 nM.

With `COc1cnc(Cl)cc1-c1cc(N(C)C(C)=O)ccc1C(=O)Nc1nnc(C#CC2CC2)s1` [Compound 294], half-maximal inhibition (IC50) required 0.29 nM.

`COc1cnc(C(F)F)cc1-c1cc(Nc2nnc(C)o2)ccc1C(=O)Nc1nnc(C#CC2CC2)s1` [Compound 152] had an IC50 of 1.2 nM.

Consider `COc1cnc(C(F)F)cc1-c1cc(N2CCC(C)CC2=O)ncc1C(=O)Nc1nnc(C#CC2CC2)s1` (centres unmarked) [Compound 141], for which the concentration for half-maximal inhibition (IC50) was < 0.25 nM.

With `COc1cnc(C(F)F)cc1-c1cc(N2CCOCC2=O)ncc1C(=O)Nc1nnc(C#CC2CC2)s1` [Compound 110, N-(5-(cyclopropylethynyl)-1,3,4-thiadiazol-2-yl)-2′-(difluoromethyl)-5′-methoxy-6-(3-oxomorpholino)-[4,4′-bipyridine]-3-carboxamide], the half-inhibitory concentration (IC50) was < 0.25 nM.

As for `COc1cnc(Cl)cc1-c1cc(C2(C(=O)O)CC2)ccc1C(=O)Nc1nnc(C#CC2CC2)s1` [Compound 250], half-maximal inhibition (IC50) required 1.3 nM.

Take `COc1cnc(Cl)cc1-c1cc(-c2n[nH]cc2C)ccc1C(=O)Nc1nnc(C#CC2CC2)s1` [Compound 298]: the IC50 is 0.8 nM.

`COc1ccc(C(F)(F)F)cc1-c1cn(C)c(=O)cc1C(=O)Nc1nnc(C#CC2CCCOC2)s1` (centres unmarked) [Compound 336] showed an IC50 of 33 nM.

Regarding `COc1cnc(C(F)F)cc1-c1cc(-c2nnc(C)o2)ccc1C(=O)Nc1nc(C)c(C#CC2CC2)s1` [Compound 164], inhibition was half-maximal at 289 nM (IC50).

Take `COc1cnc(Cl)cc1-c1cn2ncnc2cc1C(=O)Nc1nnc(C#CC2CC23CC3)s1` (centres unmarked) [Compound 64]: half-maximal inhibition (IC50) was put at 1.9 nM.

In turn, `Cc1cnc(Cl)cc1-c1cnccc1C(=O)Nc1nnc(C#CC2CC2)s1` [Compound 299] registered an IC50 of 0.6 nM.

As to `COc1ccc(C(F)(F)F)cc1-c1cn(C)c(=O)cc1C(=O)Nc1nnc(C#CC2CC2)s1` [Compound 80], the IC50 was 2.1 nM.

As to `COc1cnc(C(F)F)cc1-c1cc(Cc2nnc(C)o2)ncc1C(=O)Nc1ncc(C#CC2CC2)s1` [Compound 401], the half-inhibitory concentration (IC50) was < 0.25 nM.

A word on the IC50: it is the point on the concentration scale where inhibition reaches its midpoint. Higher therefore signals lower potency.
